Data taken from patent US12077503B2, “Substituted cyclic amides and their use as herbicides” (FMC CORPORATION, priority 2015, dated 2024).

Legend:
Type in all cases: in vivo
rice (Oryra sativa) = assay: Test B flooded paddy test; conditions: Flood, 0 to 100 scale where 0 is no effect and 100 is complete control, 13 to 15 d
Method in brief: (§1)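 Plants at 2-leaf stage flooded to 3 cm above soil, with compounds applied directly to paddy water and that depth maintained. Plants kept in greenhouse 13–15 d. Visual rating versus controls on a 0 (no effect) to 100 (complete control) scale.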

[1] = tested on: ducksalad (Heteranthera limosa); assay: Test B flooded paddy test; conditions: Flood, 0 to 100 scale where 0 is no effect and 100 is complete control, 13 to 15 d
Method in brief: as §1

[2] = tested on: sedge, umbrella (small-flower umbrella sedge, Cyperus difformis); assay: Test B flooded paddy test; conditions: Flood, 0 to 100 scale where 0 is no effect and 100 is complete control, 13 to 15 d
Method in brief: as §1

[3] = tested on: barnyardgrass (Echinochloa crus-galli); assay: Test B flooded paddy test; conditions: Flood, 0 to 100 scale where 0 is no effect and 100 is complete control, 13 to 15 d
Method in brief: as §1

[4] = tested on: giant foxtail (Setaria faberii); assay: Test A preemergence; conditions: for Plant response rating, Foxtail, Giant: 125 g ai/ha
Source text: (§2) Seeds of plant species selected from barnyardgrass (Echinochloa crus-galli), Kochia (Kochia scoparia), ragweed (common ragweed, Ambrosia elatior), ryegrass, Italian (Italian ryegrass, Lolium multiflorum), crabgrass, large (Digitaria sanguinalis), giant foxtail (Setaria faberii), green foxtail (Setaria viridis), morningglory (Ipomoea spp.), pigweed (Amaranthus retroflexus), velvetleaf (Abutilon theophrasti), wheat (Triticum aestivum), and corn (Zea mays) were planted into a blend of loam soil and sand and treated preemergence with a directed soil spray using test chemicals formulated in anon-phytotoxic solvent mixture which included a surfactant.
(§3) At the same time, plants selected from these crop and weed species and also blackgrass (Alopecurus myosuroides), and Galium (catchweed bedstraw, Galium aparine) were planted in pots containing the same blend of loam soil and sand and treated with postemergence applications of test chemicals formulated in the same manner. Plants ranged in height from 2 to 10 cm and were in the one- to two-leaf stage for the postemergence treatment. Treated plants and untreated controls were maintained in a greenhouse for approximately 10 d, after which time all treated plants were compared to untreated controls and visually evaluated for injury. Plant response ratings, summarized in Table A, are based on a 0 to 100 scale where 0 is no effect and 100 is complete control. A dash (-) response means no test result.

[5] = tested on: pigweed (Amaranthus retroflexus); assay: Test A preemergence; conditions: for Plant response rating, Pigweed: 125 g ai/ha
Source text: as §2, §3

Kochia (Kochia scoparia) [6] = assay: Test A preemergence; conditions: for Plant response rating, Kochia: 125 g ai/ha
Source text: as §2, §3

[7] = tested on: ryegrass, Italian (Italian ryegrass, Lolium multiflorum); assay: Test A preemergence; conditions: for Plant response rating, Ryegrass, Italian: 125 g ai/ha
Source text: as §2, §3

[8] = tested on: barnyardgrass (Echinochloa crus-galli); assay: Test A preemergence; conditions: for Plant response rating, Barnyardgrass: 125 g ai/ha
Source text: as §2, §3

[9] = tested on: ragweed (common ragweed, Ambrosia elatior); assay: Test A preemergence; conditions: for Plant response rating, Ragweed: 125 g ai/ha
Source text: as §2, §3

[10] = tested on: Galium (catchweed bedstraw, Galium aparine); assay: Test A postemergence; conditions: for Galium plant response rating: 125 g ai/ha, visual injury rating on 0 to 100 scale (0 no effect, 100 complete control), approx. 10 d; for Plant response rating, Galium: 500 g ai/ha
Source text: as §2, §3

corn (Zea mays) = assay: Test A postemergence; conditions: for Corn plant response rating: 125 g ai/ha, visual injury rating on 0 to 100 scale (0 no effect, 100 complete control), approx. 10 d; for Plant response rating, Corn: 500 g ai/ha
Source text: as §2, §3

[11] = tested on: giant foxtail (Setaria faberii); assay: Test A postemergence; conditions: for Foxtail, Giant plant response rating: 125 g ai/ha, visual injury rating on 0 to 100 scale (0 no effect, 100 complete control), approx. 10 d; for Plant response rating, Foxtail, Giant: 500 g ai/ha
Source text: as §2, §3

[12] = tested on: pigweed (Amaranthus retroflexus); assay: Test A postemergence; conditions: for Pigweed plant response rating: 125 g ai/ha, visual injury rating on 0 to 100 scale (0 no effect, 100 complete control), approx. 10 d; for Plant response rating, Pigweed: 500 g ai/ha
Source text: as §2, §3

[13] = tested on: blackgrass (Alopecurus myosuroides); assay: Test A postemergence
Source text: as §2, §3

Kochia (Kochia scoparia) [14] = assay: Test A postemergence; conditions: for Kochia plant response rating: 125 g ai/ha, visual injury rating on 0 to 100 scale (0 no effect, 100 complete control), approx. 10 d; for Plant response rating, Kochia: 500 g ai/ha
Source text: as §2, §3

[15] = tested on: ryegrass, Italian (Italian ryegrass, Lolium multiflorum); assay: Test A postemergence; conditions: for Ryegrass, Italian plant response rating: 125 g ai/ha, visual injury rating on 0 to 100 scale (0 no effect, 100 complete control), approx. 10 d; for Plant response rating, Ryegrass, Italian: 500 g ai/ha
Source text: as §2, §3

[16] = tested on: barnyardgrass (Echinochloa crus-galli); assay: Test A postemergence
Source text: as §2, §3

[17] = tested on: wheat (Triticum aestivum); assay: Test A postemergence; conditions: for Wheat plant response rating: 125 g ai/ha, visual injury rating on 0 to 100 scale (0 no effect, 100 complete control), approx. 10 d; for Plant response rating, Wheat: 500 g ai/ha
Source text: as §2, §3

[18] = tested on: ragweed (common ragweed, Ambrosia elatior); assay: Test A postemergence; conditions: for Ragweed plant response rating: 125 g ai/ha, visual injury rating on 0 to 100 scale (0 no effect, 100 complete control), approx. 10 d; for Plant response rating, Ragweed: 500 g ai/ha
Source text: as §2, §3

[19] = preemergence, 0 to 100 scale (0 no effect, 100 complete control)
[20] = Preemergence, 500 g ai/ha, 0 is no effect, 100 is complete control
[21] = postemergence, 0 to 100 scale, 0 no effect, 100 complete control
[22] = 500 g ai/ha, postemergence, 0 to 100 scale, 0 no effect, 100 complete control
[23] = Postemergence, 125 g ai/ha, visual injury, 0 to 100 scale (0 no effect, 100 complete control), approx. 10 d
[24] = Preemergence, visual injury after approximately 10 d, 0 to 100 scale where 0 is no effect and 100 is complete control
[25] = Preemergence, 500 g ai/ha, visual injury approx. 10 d
[26] = Postemergence, 0 to 100 scale where 0 is no effect and 100 is complete control
[27] = 125 g ai/ha, postemergence, visual injury rating on 0 to 100 scale (0 no effect, 100 complete control), approx. 10 d
[28] = Postemergence, 500 g ai/ha, 0 to 100 scale where 0 is no effect and 100 is complete control

O=C1NCC(c2cccc(OCC(F)F)c2)C1C(=O)Nc1ccccc1F (racemic) [Compound 387]
50: Plant response rating, Barnyardgrass ([3]; 500 g ai/ha) | Foxtail, Giant plant response rating ([11]; postemergence) | Plant response rating, Blackgrass [13, 22]
90: Foxtail, Giant plant response rating (0 to 100 scale) [4, 20]
75: Plant response rating, Ducksalad ([1]; 500 g ai/ha)
0: Plant response rating, Sedge, Umbrella ([2]; 500 g ai/ha) | Plant response rating, Pigweed [5, 19] | Pigweed plant response rating (0 to 100 scale) [5, 20] | Plant response rating, Kochia (Kochia (Kochia scoparia) [6]; [19]) | Kochia plant response rating (0 to 100 scale) (Kochia (Kochia scoparia) [6]; [20]) | Plant response rating, Ryegrass, Italian [7, 19] | Ryegrass, Italian plant response rating (0 to 100 scale) [7, 20] | Plant response rating, Ragweed [9, 19] | Ragweed plant response rating (0 to 100 scale) [9, 20] | Galium plant response rating ([10]; postemergence) | Plant response rating, Galium [10, 21] | Corn plant response rating (corn (Zea mays); postemergence) | Plant response rating, Corn (corn (Zea mays); [21]) | Pigweed plant response rating ([12]; postemergence) | Plant response rating, Pigweed [12, 21] | Plant response rating, Blackgrass [13, 23] | Kochia plant response rating (Kochia (Kochia scoparia) [14]; postemergence) | Plant response rating, Kochia (Kochia (Kochia scoparia) [14]; [21]) | Ryegrass, Italian plant response rating ([15]; postemergence) | Plant response rating, Ryegrass, Italian [15, 21] | Wheat plant response rating ([17]; postemergence) | Plant response rating, Wheat [17, 21] | Ragweed plant response rating ([18]; postemergence) | Plant response rating, Ragweed [18, 21]
80: Barnyardgrass plant response rating (0 to 100 scale) [8, 20]
20: Plant response rating, Rice (rice (Oryra sativa); 500 g ai/ha)
70: Plant response rating, Foxtail, Giant [4, 19] | Plant response rating, Barnyardgrass [8, 19] | Plant response rating, Foxtail, Giant [11, 21] | Plant response rating, Barnyardgrass [16, 22] | Plant response rating, Barnyardgrass [16, 23]

Cc1ccc(C2CNC(=O)C2C(=O)Nc2ccccc2S(C)(=O)=O)c(F)c1 (racemic) [Compound 507]
30: Kochia plant response rating (Kochia (Kochia scoparia) [14]; postemergence)
75: Plant response rating, Ducksalad ([1]; 250 g ai/ha)
60: Plant response rating, Barnyardgrass [16, 28]
40: Plant response rating, Barnyardgrass [8, 24]
20: Pigweed plant response rating (0 to 100 scale, 0 is no effect, 100 is complete control) [5, 25] | Plant response rating, Galium [10, 26] | Plant response rating, Foxtail, Giant [11, 26] | Barnyardgrass plant response rating [16, 27] | Plant response rating, Ragweed [18, 26]
70: Kochia plant response rating (0 to 100 scale, 0 is no effect, 100 is complete control) (Kochia (Kochia scoparia) [6]; [25]) | Plant response rating, Kochia (Kochia (Kochia scoparia) [14]; [26])
50: Foxtail, Giant plant response rating (0 to 100 scale, 0 is no effect, 100 is complete control) [4, 25]
0: Plant response rating, Rice (rice (Oryra sativa); 250 g ai/ha) | Plant response rating, Sedge, Umbrella ([2]; 250 g ai/ha) | Plant response rating, Barnyardgrass ([3]; 250 g ai/ha) | Plant response rating, Foxtail, Giant [4, 24] | Plant response rating, Pigweed [5, 24] | Plant response rating, Kochia (Kochia (Kochia scoparia) [6]; [24]) | Plant response rating, Ryegrass, Italian [7, 24] | Ryegrass, Italian plant response rating (0 to 100 scale, 0 is no effect, 100 is complete control) [7, 25] | Plant response rating, Ragweed [9, 24] | Ragweed plant response rating (0 to 100 scale, 0 is no effect, 100 is complete control) [9, 25] | Galium plant response rating ([10]; postemergence) | Corn plant response rating (corn (Zea mays); postemergence) | Plant response rating, Corn (corn (Zea mays); [26]) | Foxtail, Giant plant response rating ([11]; postemergence) | Pigweed plant response rating ([12]; postemergence) | Plant response rating, Pigweed [12, 26] | Blackgrass plant response rating [13, 27] | Plant response rating, Blackgrass [13, 28] | Ryegrass, Italian plant response rating ([15]; postemergence) | Plant response rating, Ryegrass, Italian [15, 26] | Wheat plant response rating ([17]; postemergence) | Plant response rating, Wheat [17, 26] | Ragweed plant response rating ([18]; postemergence)
80: Barnyardgrass plant response rating (0 to 100 scale, 0 is no effect, 100 is complete control) [8, 25]
